Consider 8 compounds from publication PMC7694328, “Synthesis and Glycosidase Inhibition Properties of Calix[8]arene-Based Iminosugar Click Clusters” (Pharmaceuticals, 2020).

Values joined by “and” are separate entries in the source; they are usually repeats but may differ in a detail not shown here. Identical values can stand only once. Like-named read-outs stand apart in the source and are kept apart here.

Experiment [1] concerns the target T1, Jack Bean α-mannosidase (JBα-man) (Canavalia ensiformis, UniProt C0HJB3).
T1 construct: two LH heterodimers, each constituted by two distinct chains, L and H; purchased Sigma Aldrich
T1 sequence (C0HJB3 1-562 limits assumed): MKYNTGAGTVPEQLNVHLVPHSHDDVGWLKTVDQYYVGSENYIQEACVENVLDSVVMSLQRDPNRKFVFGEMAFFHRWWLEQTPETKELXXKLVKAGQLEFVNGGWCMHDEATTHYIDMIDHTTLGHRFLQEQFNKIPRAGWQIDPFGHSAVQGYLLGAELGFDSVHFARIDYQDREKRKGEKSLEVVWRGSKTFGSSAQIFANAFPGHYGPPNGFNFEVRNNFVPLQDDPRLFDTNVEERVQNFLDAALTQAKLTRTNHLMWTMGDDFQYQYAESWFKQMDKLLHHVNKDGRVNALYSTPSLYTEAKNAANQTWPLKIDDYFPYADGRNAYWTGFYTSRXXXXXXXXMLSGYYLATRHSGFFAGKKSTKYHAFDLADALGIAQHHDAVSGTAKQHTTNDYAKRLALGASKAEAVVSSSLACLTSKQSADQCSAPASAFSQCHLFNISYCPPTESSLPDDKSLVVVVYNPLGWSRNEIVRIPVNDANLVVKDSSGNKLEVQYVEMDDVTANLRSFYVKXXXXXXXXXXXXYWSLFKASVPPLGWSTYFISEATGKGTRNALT
T1 sequence (C0HJB3 563-981 limits assumed): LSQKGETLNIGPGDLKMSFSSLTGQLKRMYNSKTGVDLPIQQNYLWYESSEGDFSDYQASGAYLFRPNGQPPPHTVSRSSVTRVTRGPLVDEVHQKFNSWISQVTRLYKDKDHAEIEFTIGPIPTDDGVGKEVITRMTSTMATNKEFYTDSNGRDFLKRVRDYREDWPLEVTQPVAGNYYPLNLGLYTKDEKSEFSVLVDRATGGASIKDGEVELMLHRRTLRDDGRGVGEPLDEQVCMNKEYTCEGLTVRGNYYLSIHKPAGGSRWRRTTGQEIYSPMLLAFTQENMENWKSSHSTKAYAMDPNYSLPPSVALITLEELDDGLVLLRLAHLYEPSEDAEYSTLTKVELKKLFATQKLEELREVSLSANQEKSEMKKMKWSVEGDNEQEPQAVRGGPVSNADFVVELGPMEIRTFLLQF
The settings on record: cited from earlier work; for rp/n: cyclopeptoid-based clusters.

Experiment [2] concerns the target T1, Jack Bean α-mannosidase (JBα-man). Briefly: Inhibition assay against Jack Bean α-mannosidase (hydrolysis of p-nitrophenyl-α-D-mannopyranoside). The experiment is classed as biochemical. Here is the method:
p-nitrophenyl-α-D-mannopyranoside and α-mannosidase (EC 3.2.1.24, from Jack Bean, Km = 2.0 mM pH 5.5) were purchased from Sigma Aldrich(St. Louis, MO, USA).
General procedure for Inhibition assay with basic quench: Inhibitory potencies were determined spectrophotometrically (Versamax 96-well plate spectrophotometer, Molecular Devices Corporation, Sunnyvale, CA, USA) measuring the residual hydrolytic activities of the mannosidase against p-nitrophenyl-α-D-mannopyranoside in the presence and absence of the inhibitor. All kinetics were performed at 25 °C and started by enzyme addition (0.015 U/mL) in a 100 µL assay medium (acetate buffer, 0.2 M, pH = 5) containing substrate (varying concentration from Km/8 to 2Km value) in presence or absence of various concentrations of inhibitor. After 40–50 min incubation, the reaction was quenched by addition of 1M Na2CO3 (100 µL). The absorbance of the resulting solution was determined at 405 nm. Ki values were determined in duplicate or triplicate, using the Dixon and Lineweaver–Burk graphical methods with Microsoft Excel 97-03, or using non-linear regression with GraphPad Prism 7 Software. As the inhibitors are only partially soluble in water, they were dissolved in DMSO for concentrated mother solutions and DMSO/buffer for diluted solutions with a final DMSO concentration under 4% in all wells. Previously, the stability of the enzymes in presence of various concentrations of DMSO was controlled and the enzyme activity was unaffected.
General procedure for inhibition assay measured continuously: The release of p-nitrophenol was measured continuously at 385 nm to determine initial velocities. […] Under these conditions, the p-nitrophenolate released led to optical densities linear with both reaction time and concentration of the enzyme. Ki values were determined in duplicate or quadruplate, using the Dixon graphical method. As the inhibitors are only partially soluble in water, they were dissolved in DMSO for concentrated mother solutions and DMSO/buffer for diluted solutions with a final DMSO concentration under 5% in all vials. […]

Where [3] appears, read: calix[4]arene cluster and its monovalent reference, read-out: Ki.

Consider `O=C1CN(Cc2cn(CCCCCCCCCN3C[C@H](O)[C@@H](O)[C@H](O)[C@H]3CO)nn2)C(=O)CN(Cc2cn(CCCCCCCCCN3C[C@H](O)[C@@H](O)[C@H](O)[C@H]3CO)nn2)C(=O)CN(Cc2cn(CCCCCCCCCN3C[C@H](O)[C@@H](O)[C@H](O)[C@H]3CO)nn2)C(=O)CN(Cc2cn(CCCCCCCCCN3C[C@H](O)[C@@H](O)[C@H](O)[C@H]3CO)nn2)C(=O)CN(Cc2cn(CCCCCCCCCN3C[C@H](O)[C@@H](O)[C@H](O)[C@H]3CO)nn2)C(=O)CN1Cc1cn(CCCCCCCCCN2C[C@H](O)[C@@H](O)[C@H](O)[C@H]2CO)nn1` [Compound 1a], for which, in experiment [1], the rp/n was 3 and ~ 3.

For the compound `O=C1CN(Cc2cn(CCCCCCCCCN3C[C@H](O)[C@@H](O)[C@H](O)[C@H]3CO)nn2)C(=O)CN(Cc2cn(CCCCCCCCCN3C[C@H](O)[C@@H](O)[C@H](O)[C@H]3CO)nn2)C(=O)CN(Cc2cn(CCCCCCCCCN3C[C@H](O)[C@@H](O)[C@H](O)[C@H]3CO)nn2)C(=O)CN(Cc2cn(CCCCCCCCCN3C[C@H](O)[C@@H](O)[C@H](O)[C@H]3CO)nn2)C(=O)CN(Cc2cn(CCCCCCCCCN3C[C@H](O)[C@@H](O)[C@H](O)[C@H]3CO)nn2)C(=O)CN(Cc2cn(CCCCCCCCCN3C[C@H](O)[C@@H](O)[C@H](O)[C@H]3CO)nn2)C(=O)CN(Cc2cn(CCCCCCCCCN3C[C@H](O)[C@@H](O)[C@H](O)[C@H]3CO)nn2)C(=O)CN1Cc1cn(CCCCCCCCCN2C[C@H](O)[C@@H](O)[C@H](O)[C@H]2CO)nn1` [Compound 1b], in experiment [1], the rp/n is 3 and ~ 3. Turning to `CC(C)(C)c1cc2c(OCc3cn(CCCN4C[C@H](O)[C@@H](O)[C@H](O)[C@H]4CO)nn3)c(c1)Cc1cc(C(C)(C)C)cc(c1OCc1cn(CCCN3C[C@H](O)[C@@H](O)[C@H](O)[C@H]3CO)nn1)Cc1cc(C(C)(C)C)cc(c1OCc1cn(CCCN3C[C@H](O)[C@@H](O)[C@H](O)[C@H]3CO)nn1)Cc1cc(C(C)(C)C)cc(c1OCc1cn(CCCN3C[C@H](O)[C@@H](O)[C@H](O)[C@H]3CO)nn1)C2` [Compound 2], in experiment [1] (setting [3]), the Ki was 1.5 µM. In experiment [1] (calix[4]arene cluster), the “rp/n (affinity enhancement per iminosugar)” value was 70 and ~ 70. For the compound `CCCc1cn(CCCCCCN2C[C@H](O)[C@@H](O)[C@H](O)[C@H]2CO)nn1` [Compound 3], the Ki in experiment [1] (monovalent reference, C6 chain, read-out: Ki) is 322 µM. Regarding `CCCc1cn(CCCCCCCCCN2C[C@H](O)[C@@H](O)[C@H](O)[C@H]2CO)nn1` [Compound 4], the inhibitory constant (Ki) in experiment [1] (monovalent reference, C9 chain, read-out: Ki) is 188 µM. As for `OCc1cn(CCCN2C[C@H](O)[C@@H](O)[C@H](O)[C@H]2CO)nn1` [Compound 5], the inhibition constant Ki in experiment [1] (setting [3]) is 400 µM.

In the case of `CC(C)(C)c1cc2c3c(c1)Cc1cc(C(C)(C)C)cc(c1OCc1cn(CCCCCCN4C[C@H](O)[C@@H](O)[C@H](O)[C@H]4CO)nn1)Cc1cc(C(C)(C)C)cc(c1OCc1cn(CCCCCCN4C[C@H](O)[C@@H](O)[C@H](O)[C@H]4CO)nn1)Cc1cc(C(C)(C)C)cc(c1OCc1cn(CCCCCCN4C[C@H](O)[C@@H](O)[C@H](O)[C@H]4CO)nn1)Cc1cc(C(C)(C)C)cc(c1OCc1ccc(cc1)CO3)Cc1cc(C(C)(C)C)cc(c1OCc1cn(CCCCCCN3C[C@H](O)[C@@H](O)[C@H](O)[C@H]3CO)nn1)Cc1cc(C(C)(C)C)cc(c1OCc1cn(CCCCCCN3C[C@H](O)[C@@H](O)[C@H](O)[C@H]3CO)nn1)Cc1cc(C(C)(C)C)cc(c1OCc1cn(CCCCCCN3C[C@H](O)[C@@H](O)[C@H](O)[C@H]3CO)nn1)C2` [Compound 7a], the inhibition mode result in experiment [2] is “competitive inhibitors”. The affinity in experiment [2] (means ± SD, triplicate), expressed as Ki, was 7.7 ± 0.7 µM. Moreover, in experiment [2] (rp/number of DNJ units), the “rp/n (relative inhibition potency per DNJ unit)” value is listed as 7.

Regarding `OC[C@@H]1[C@@H](O)[C@H](O)[C@H](O)c2nccn21` [mannoimidazole], the Ki in experiment [1] (monovalent inhitope, read-out: Ki (monovalent)) is 0.11 µM.
